Reference: patent publication US7371889B2, “Chemical entities with multiple modes of anti-inflammatory action” (Sami Labs Limited, priority 2002, dated 2008)

Assays:
[1] = tested on: Freund's adjuvant (FA) arthritis; assay: Freund's adjuvant (FA) arthritis in rats, nociception; type: in vivo; details: oral administration, dose giving the same extent of inhibition
Protocol: Freund's adjuvant (FA) arthritis was induced in rats by a single intraplantar injection into the right hindpaw of 100 microl of Mycobacterium butirricum (6 mg/mL). […] Hindpaw swelling (days 3, 7, 11, 14, 17, 21) and nociception (days 15 and 21) were measured. On day 22 rats were sacrificed, draining lymph nodes were removed and T cells isolated. In vitro proliferation of T cells following stimulation with concanavalin A (0.5-5 mcg/mL) was measured using a tritiated thymidine incorporation assay.

[2] = tested on: T cells; assay: In vitro proliferation of T cells from draining lymph nodes after concanavalin A stimulation, tritiated thymidine incorporation; type: cell-based; details: T cells isolated day 22 from treated rats, thymidine uptake
Protocol: Hindpaw swelling (days 3, 7, 11, 14, 17, 21) and nociception (days 15 and 21) were measured. On day 22 rats were sacrificed, draining lymph nodes were removed and T cells isolated. In vitro proliferation of T cells following stimulation with concanavalin A (0.5-5 mcg/mL) was measured using a tritiated thymidine incorporation assay.
IL-2 receptor expression on T cells was measured by FACS analysis. […] T cells were isolated and characterized by FACS analysis.

SMILES | dose at which anti-nociceptive [1] [mg/kg] | order of activity, inhibition of T-cell proliferation [2]
CC(=O)O[C@@H]1CC[C@@]2(C)[C@@H](CC[C@]3(C)[C@@H]2C(=O)C=C2[C@@H]4[C@@H](C)[C@H](C)CC[C@]4(C)CC[C@@]23C)[C@@]1(C)C(=O)OCOC(=O)C(C)c1ccc(CC(C)C)cc1 (some centres unmarked) [SA-040, AKBBA-Ibuprofen conjugate] | 5.9 | SA-041>SA-040>N>1>AKBBA
COc1ccc2cc([C@H](C)C(=O)O)ccc2c1 [N, Naproxen, reference compound] | – | SA-041>SA-040>N>1>AKBBA
CC(=O)OC1CCC2(C)C(CCC3(C)C2C(=O)C=C2C4C(C)C(C)CCC4(C)CCC23C)C1(C)C(=O)OCCl (stereo not drawn) [Example 1, 3-Acetyl-11-keto-β-boswellic acid chloromethyl ester] | – | SA-041>SA-040>N>1>AKBBA
CC(=O)O[C@@H]1CC[C@@]2(C)[C@@H](CC[C@]3(C)[C@@H]2C(=O)C=C2[C@@H]4[C@@H](C)[C@H](C)CC[C@]4(C)CC[C@]23C)[C@@]1(C)C(=O)O [AKBBA, 3-acetyl-11-keto-β-boswellic acid, reference compound] | – | SA-041>SA-040>N>1>AKBBA
